In publication PMC4423777, “Ciprofloxacin Derivatives Affect Parasite Cell Division and Increase the Survival of Mice Infected with Toxoplasma gondii” (PLoS ONE, 2015):
Where “and” joins values, the source holds several entries; their conditions need not be identical. Identical values can stand only once. Entries after “also recorded” stand apart in the source; their conditions may differ. Like-named read-outs stand apart in the source and are kept apart here.

Experiments:
[1] = tested on: T. gondii tachyzoites (RH strain); assay: Survival of mice acutely infected with T. gondii, 7-day oral treatment; type: in vivo, Toxoplasma gondii; details: 7 days, from 24 h post-infection
Description: In this study, we used tachyzoite forms the RH strain of Toxoplasma gondii, obtained from the peritoneal cavity of mice 2 days after infection. […] Drinking water and food were given ad libitum.
To determine compound efficacy against T. gondii in vivo, female Swiss mice were infected intraperitoneally (i.p.) with 5x10^3 T. gondii tachyzoites and treated with test compounds from 24 h post-infection. […] Mice were treated once daily for 7 days, by oral gavage, and mouse mortality was monitored once a day for a period of 60 days. During survival studies, mice were not inflicted to any suffering condition and mice presenting morbidity symptoms (shivering, ruffled hair and immobility) were euthanized by CO2 asphyxiation to minimize animal suffering, and then mortality was scored. Survival curves were calculated using the Kaplan and Meier method, and compared using the log-rank (Mantel-Cox) test, in GraphPad Prism 5.0 (GraphPad Software Inc.) and P<0.05 was considered statistically significant.

[2] = for Serum levels of creatinine kinase (in words): single oral dose, 48 h; for Mouse weight (g) After 48 h / Mouse weight (g) Initial: uninfected Swiss mice; for Mouse weight (g) Initial: before dosing; for Serum urea: reference 18–29 mg/dL; for Serum creatinine kinase: reference ≤ 1070 U/L
Description: Acute toxicity analysis was performed using non-infected female Swiss mice (19–21 g).

[3] = tested on: T. gondii tachyzoites; assay: Immunofluorescence microscopy of treated tachyzoites in LLC-MK2 cells (cell division arrest, basal IMC gap); type: cell-based, Toxoplasma gondii; details: for Basal IMC length mean: untreated control 0.65 ± 0.11 μm; for Effect on parasite division, anti-IMC1 labeling: 1 and 5 μM Et-Cipro and Adam-Cipro, 10 μM Ph-Cipro
Description: For Cipro assay, cells were infected in a ratio of 5:1 parasites per host cell and treated for 24, 48 and 72h. After treatment, infected cells were fixed in 3.7% freshly-prepared formaldehyde, permeabilized with 0.5% Triton X-100 for 15 min, and blocked with 3% bovine serum albumin (BSA) in PBS at pH 7.4 and room temperature for 1 h. All antibody incubations were performed in 3% BSA in PBS, for 1h, at room temperature. The following primary antibodies were used: anti-SAG1 (kindly provided by Dr. John Boothroyd, Stanford University School of Medicine, USA), at a dilution of 1:1000; anti-HSP60 and anti-Morn1 (kindly provided by Dr. Boris Striepen, University of Georgia, USA), diluted to 1:2000 and 1:100, respectively; and anti-IMC1 (kindly provided by Dr. Gary Ward, University of Vermont, USA), diluted to 1:1000. The secondary antibodies used here were anti-mouse/rabbit coupled to Alexa 488 or 546 (Molecular Probes). Sytox green (Molecular Probes) and DAPI (Sigma-Aldrich) were used to label the DNA. After labeling, the coverslips were mounted onto slides using Prolong gold (Life Technologies), and samples were examined on a TCSSP5 Leica or Zeiss LSM710 laser scanning confocal microscopes.

[4] = tested on: T. gondii tachyzoites; details: read-out: IC50 against T. gondii in vitro; after 48 h of treatment; cited from earlier work
[5] = tested on: Cryptosporidium parvum sporozoites; assay: Cryptosporidium parvum in vitro growth assay in MDBK cells; type: cell-based
Description: C. parvum oocysts obtained from infected neonatal calves (Institut National de la Recherche Agronomique-INRA, Nouzilly, France) were purified as previously described and stored in PBS at 4°C. Madin Darby bovine kidney cell line (MDBK; ECACC # 88081201, Sophia Antipolis, France) was cultured at 37°C in a 5% CO2 moist atmosphere in growth medium: RPMI 1640 (Sigma, L’Isle d’Abeau, France) supplemented with 25 mM HEPES (Sigma H-3375), 200 U/ml of penicillin, 200 μg/ml of streptomycin (Sigma P-0781) and 10% fetal calf serum (FCS; Dutscher, Brumath, France).
Prior to infection, MDBK cells were trypsinized and seeded in just one well of a 24-well plate in 2 ml of RPMI 1640 with 1% FCS. Aseptic oocysts were prepared for excystation by incubation in RPMI-1640, pH 2 (for 30 min at 37°C). Then, oocytes were washed in RPMI 1640 with 1% FCS and allowed to interact with MDBK cells for 1.5 h at 37°C in a 5% CO2 atmosphere. After 3 washes by centrifugation at 160 g in RPMI 1640 to remove non-excysted oocysts and shells, infected cells were plated in 24-well plates containing glass coverslips, in 500 μl/well of RPMI/1%FCS, and allowed to settle for 24 h. The infected cells were subsequently washed 3 times with RPMI 1640 and allowed to grow for a further 5 h (in 500 μl/well of RPMI/1% FCS). 500 μl of medium containing twice-concentrated Cipro derivatives were then added in triplicates in an equal volume of growth medium and left for another 24 h. Cells were fixed in 100% methanol and stained with 20% Giemsa and 1% Alcian blue as previously described, and the effects against sporozoite proliferation were evaluated by examining at least 1000 cells/coverslip in a light microscope, using an oil immersion X100 objective.

[6] = tested on: T. gondii; assay: Plaque assay in human foreskin fibroblasts, 10 days treatment; type: cell-based, Toxoplasma gondii; details: HFF
Description: For plaque assay, 6-well tissue culture plates were seeded with human foreskin fibroblasts (HFF; ATCC). HFF was grown in high glucose Dulbeco’s Modified Eagle Medium supplemented with 10% FBS, 2mM L-glutamine, 100 U/ml penicillin, and 100 μg/ml streptomycin and maintained at 37°C with 5% CO2. After cultures reached confluence each well was infected with 10^4 of T. gondii. Infected cultures were treated for 10 days with Cipro derivatives, Cipro or left untreated.

[7] = tested on: T. gondii; design: method as in PMID 8843293, PMID 11120943; details: read-out: IC50 against T. gondii, cited from earlier work
[8] = tested on: T. gondii tachyzoites; assay: Parasites per vacuole in LLC-MK2 cells after 6 h treatment (light microscopy); type: cell-based, Toxoplasma gondii
Description: For the treatment of T. gondii tachyzoites with Cipro derivatives in vitro, 5x10^5 LLC-MK2 cells (ATCC CCL7, Rockville, MD/EUA) in RPMI medium were plated on coverslips inside 24-well tissue culture plates, and allowed to settle at 37°C (5% CO2) for ~24h. Then, cells were infected with parasites (freshly-harvested from infected mice) at a 10:1 ratio of parasites to host cells. […] Then, coverslips were fixed with Bouin and stained with panoptic (solutions 2 and 3 of the ‘Panotico rápido’ kit, from Laborclin Ltda., Paraná, Brazil). Alternatively, cultures were washed three times with 0.5 ml of medium (to remove test compounds) and incubated for an additional 18 h in medium without drugs, before fixing and staining. The number of parasites per vacuole was scored by direct light microscopy examination. Three independent experiments were performed for each treatment condition, and the results were analyzed by two-way ANOVA (using GraphPad Prism 5.0).

SMILES	Mouse weight (g) After 48 h ([2]; single oral dose 25 mg/kg)	Mouse weight (g) Initial ([2]; single oral dose 25 mg/kg)	Serum urea ([2]; single oral dose 25 mg/kg)	Mouse weight (g) After 48 h ([2]; single oral dose 50 mg/kg)	Mouse weight (g) Initial ([2]; single oral dose 50 mg/kg)	Serum urea ([2]; single oral dose 50 mg/kg)	Serum creatinine kinase ([2]; single oral dose 50 mg/kg)	Mouse weight (g) After 48 h ([2]; single oral dose 100 mg/kg)	Mouse weight (g) Initial ([2]; single oral dose 100 mg/kg)	Serum urea ([2]; single oral dose 100 mg/kg)	Mouse weight (g) After 48 h ([2]; single oral dose 200 mg/kg)	Mouse weight (g) Initial ([2]; single oral dose 200 mg/kg)	Serum urea ([2]; single oral dose 200 mg/kg)	Serum creatinine kinase ([2]; single oral dose 200 mg/kg)	Effect on parasite division, anti-IMC1 labeling ([3]; 24 h)	IC50 [4]	% inhibition of sporozoites growth ([5]; 12.5 μM, 24 h, MDBK cells)	% inhibition of sporozoites growth ([5]; 25 μM, 24 h, MDBK cells)	Parasite proliferation in plaque assay ([6]; 10 μM)	further results
CCOC(=O)c1cn(C2CC2)c2cc(N3CCN(Cc4ccccc4)CC3)c(F)cc2c1=O [Ph-Cipro]	23.85 g	21.21 g	49.2 mg/dL	22.72 g	19.30 g	50.6 mg/dL	506 U/L	21.94 g	19.21 g	52.8 mg/dL	22.20 g	19.93 g	46.2 mg/dL	1541 U/L	parasite cell division arrest	1.24 µM	33.6 ± 11.6%	42.6 ± 14.6%	No growth; also recorded: no plaques were observed	Survival of T. gondii-infected mice, alive 60 days post-infection ([1]; 100 mg/kg/day oral): 13%; Survival of T. gondii-infected mice, alive 60 days post-infection ([1]; 150 mg/kg/day oral): 18%; Serum levels of creatinine kinase (in words) ([2]; 200 mg/kg): slightly altered; Toxicity to mice (in words) ([2]; high doses (200mg/kg)): mild toxicity; Basal IMC length mean ([3]; 10 μM, 24 h): 0.73 ± 0.24 μm
N[C@@H]1[C@H]2CN(c3nc4c(cc3F)c(=O)c(C(=O)O)cn4-c3ccc(F)cc3F)C[C@@H]12 [trovafloxacin]	–	–	–	–	–	–	–	–	–	–	–	–	–	–	–	–	–	–	–	IC50 ([7]; L929 cell line): 1.37 µM
COc1c(N2CCNC(C)C2)c(F)cc2c(=O)c(C(=O)O)cn(C3CC3)c12 (stereo not shown) [gatifloxacin]	–	–	–	–	–	–	–	–	–	–	–	–	–	–	–	–	–	–	–	IC50 ([7]; HFF primary cell culture after 48h): 0.52 µM
CCOC(=O)c1cn(C2CC2)c2cc(N3CCNCC3)c(F)cc2c1=O [Et-Cipro]	22.25 g	19.87 g	55.8 mg/dL	20.92 g	19.15 g	51.2 mg/dL	182 U/L	22.27 g	20.71 g	55.1 mg/dL	22.17 g	20.0 g	49.3 mg/dL	583 U/L	parasite cell division arrest	0.42 µM	20.3 ± 10.1%	32.6 ± 7.6%	–	Survival of T. gondii-infected mice, alive 60 days post-infection ([1]; 50 mg/kg/day oral): 18%; Serum levels of creatinine kinase (in words) ([2]; higher doses): normal; Serum creatinine kinase ([2]; single oral dose 25 mg/kg): 1727 U/L; Serum creatinine kinase ([2]; single oral dose 100 mg/kg): 578 U/L; Basal IMC length mean ([3]; 1 μM, 24 h): 0.76 ± 0.20 μm; Parasite morphology, anti-SAG1 / Sytox green labeling ([3]; 5 μM, 24 h): formation of large multinucleated parasites; Basal IMC length mean ([3]; 5 μM, 24 h): 0.80 ± 0.26 μm; % inhibition of sporozoites growth ([5]; 50 μM, 24 h, MDBK cells): 36% and 36.43 ± 9.76%; Parasite proliferation in plaque assay ([6]; 5 μM): No growth; also recorded: no plaques were observed; Vacuoles containing just one parasite ([8]; 2 μM, 6 h treatment (7 h total infection), LLC-MK2): 57%; Concentration required to affect parasite division significantly ([8]; 6 h treatment): > 2 µM; Increase in activity (cell division inhibition) compared with the original compound Cipro ([8]; 6 h treatment, concentrations with similar effect compared): 10 fold
O=C(O)c1cn(C2CC2)c2cc(N3CCNCC3)c(F)cc2c1=O [Cipro, ciprofloxacin]	–	–	–	–	–	–	–	–	–	–	–	–	–	–	–	–	–	–	significant decrease in parasite proliferation; also recorded: drastic reduction on parasite proliferation	Alteration of tachyzoites (in words) ([3]; 20 μM, 24 h): not induced any significant alteration; Parasitophorous vacuoles containing parasites presenting cell division arrest ([3]; 20 μM, 48 h): 24%; Parasitophorous vacuoles containing parasites presenting cell division arrest ([3]; 20 μM, 72 h): 26%; IC50 ([5]; Cryptosporidium parvum, MDBK, after 24h, estimated, read-out: IC50 against C. parvum): 39.2 µM; inhibition at 12.5 µM ([5]; Cryptosporidium parvum, 12.5 μM, 24 h, MDBK cells): 19.5 ± 1.1%; inhibition at 25 µM ([5]; Cryptosporidium parvum, 25 μM, 24 h, MDBK cells): 46.1 ± 2.9%; inhibition at 50 µM ([5]; Cryptosporidium parvum, 50 μM, 24 h, MDBK cells): 53.4 ± 2.51%; Parasite proliferation in plaque assay ([6]; 20 / 20 μM): No growth; also recorded: no plaques were observed; Vacuoles containing just one parasite ([8]; 20 μM, 6 h treatment (7 h total infection), LLC-MK2): 54%; Parasitophorous vacuoles having just one parasite ([8]; 50 μM, 6 h treatment (7 h total infection), LLC-MK2): 68%
